Assay results: PMC9527342, “An in vitro assay for enzymatic studies on human ALG13/14 heterodimeric UDP-N-acetylglucosamine transferase” (Frontiers in Cell and Developmental Biology, 2022)

T1: recombinant human ALG13/14 complex (FLAG-ALG13-iso2/6His-ALG14) (Homo sapiens, UniProt Q96F25+Q9NP73)
T1 construct: pelB-FLAG-ALG13-iso2 (25 kDa on SDS-PAGE) and 6His-ALG14 (22 kDa) co-expressed in E. coli Rosetta (DE3); purified from Triton X-100 membrane extract by HisTrap and anti-FLAG; tags kept; heterodimer, 45-66 kDa on native PAGE
T1 sequence (Q9NP73 1-165 isoform Q9NP73-2): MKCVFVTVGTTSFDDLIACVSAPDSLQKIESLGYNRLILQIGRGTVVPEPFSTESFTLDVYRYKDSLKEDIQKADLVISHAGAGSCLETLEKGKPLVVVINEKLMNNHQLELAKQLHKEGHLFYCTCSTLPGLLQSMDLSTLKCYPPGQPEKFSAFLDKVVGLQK
T1 sequence (Q96F25 1-216): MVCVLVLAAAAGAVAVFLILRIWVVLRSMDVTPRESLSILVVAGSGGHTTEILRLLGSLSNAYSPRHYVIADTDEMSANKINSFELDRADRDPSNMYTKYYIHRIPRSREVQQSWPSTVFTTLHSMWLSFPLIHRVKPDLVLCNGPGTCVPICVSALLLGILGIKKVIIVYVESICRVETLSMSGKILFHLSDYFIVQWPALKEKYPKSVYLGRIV

T2: 6His-ALG14 (human ALG14) (human) (UniProt Q96F25)
T2 sequence: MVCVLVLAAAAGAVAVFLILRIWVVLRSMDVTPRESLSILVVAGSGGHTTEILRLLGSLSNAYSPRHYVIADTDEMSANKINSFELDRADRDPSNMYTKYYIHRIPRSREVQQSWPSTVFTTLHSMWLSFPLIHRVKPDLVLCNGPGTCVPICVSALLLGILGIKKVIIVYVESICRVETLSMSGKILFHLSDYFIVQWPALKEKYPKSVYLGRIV


Key:
[1] = target: T1, recombinant human ALG13/14 complex (FLAG-ALG13-iso2/6His-ALG14); experiment: LC-MS (UPLC-ESI-MS) of acid-released glycans, Michaelis-Menten fit; format: biochemical; details: acceptor 20-100 μM; 2 mM UDP-GlcNAc fixed; Tris/HCl pH 7.5, 0.3% NP-40, 23% glycerol, 37 °C, 15 min; no added metal; read-out: K m (apparent)
[2] = target: T2, 6His-ALG14 (human ALG14) (human)

Km [1]	Relative activity (%): GnTase conversion rate of the mutant / that of the wild type, detergent extract of E. coli membranes, 0.1 ng/ul ALG13, 37°C, 15 min [2]	Molecule
94.1 ± 9.4 µM	–	CC(=O)N[C@H]1[C@@H](OP(=O)(O)OP(=O)(O)OCC[C@@H](C)CC/C=C(/C)CC/C=C(/C)CC/C=C(/C)CC/C=C(/C)CC/C=C(/C)CC/C=C(/C)CC/C=C(/C)CC/C=C(/C)CC/C=C(/C)CC/C=C(/C)CC/C=C(/C)CC/C=C(/C)CC/C=C(/C)CC/C=C(/C)CC/C=C(/C)CC/C=C(\C)CC/C=C(\C)CCC=C(C)C)O[C@H](CO)[C@@H](O)[C@@H]1O [Gn-PDol (C95)]
–	26%	FLAG-tagged ALG13-iso2 T141L (natural protein) MKCVFVTVGTTSFDDLIACVSAPDSLQKIESLGYNRLILQIGRGTVVPEPFSTESFTLDVYRYKDSLKEDIQKADLVISHAGAGSCLETLEKGKPLVVVINEKLMNNHQLELAKQLHKEGHLFYCTCSTLPGLLQSMDLSLLKCYPPGQPEKFSAFLDKVVGLQK
